Data set [1] has as its system IL-17A. Briefly: IL-17A secretion of mouse spleen Naïve CD4+ T cells induced to differentiate to Th17 cells by cytokines, ELISA. Format: cell-based. The method, then:
1) Pre-coated the 96-well plate with 2 μg/mL anti-mouse CD3e and incubated overnight at 4 degrees Celsius: 2) Separated fresh spleens from adult C57BL/6 female mice (8-12 weeks old), ground and filtered through a […] nylon cell strainer to obtain a single cell suspension in pre-cooled DPBS; 3) Washed the spleen cells again with DPBS, and resuspended in RoboSep™ buffer at a density of 1×10^8/mL; 4) Separated primary CD4+ T cells with mouse primary CD4+ T cell isolation kit as required by the kit; 5) Resuspended the isolated CD4+ T cells in complete medium (RPMI 1640 medium+10% inactivated FBS+1% double antibiotics) at a density of 1×10^6/mL; 6) Washed the 96-well plate pre-coated with anti-mouse CD3e twice with DPBS, added 50 μL of cytokine cocktail, the composition and final concentration of which are shown in Table 6 below, and then added 50 μL of compound solution (the final concentration of DMSO was 0.1%). Added 100 μL of cell suspension to each well to allow the final cell number per well to be 1×10^5/100 μL; [table] 7) Cultured the cells for 7 days under the above conditions. The culture conditions were 37 degrees Celsius, 5% CO2 concentration; 8) After 7 days, added 1× stimulation cocktail (eBioscience 500X) to the culture medium for 4 hours, and then collected cell culture supernatant for detection with IL-17A enzyme-linked immunoassay kit; 9) Completed the detection of supernatant IL-17A concentration with mouse IL-17 DuoSet ELISA kit; 10) Read the OD450 nm absorbance value with a microplate reader, and generated the standard curve by using the 4-parameter logistic fitting (4-PL) method. 1) Diluted the capture antibody (provided in the kit) to a working concentration in PBS without carrier protein, that is, a 96-well plate can be coated with 100 microliters per well. Sealed and incubated the plate overnight at room temperature; 2) Aspirated the coating buffer of the well plate, and eluted with 400 microliters of eluent (provided in the kit) for three times, aspirating as much liquid as possible each time; 3) Added 300 microliters of diluent (provided in the kit) to each well, and equilibrated for 1 hour at room temperature; 4) Eluted the well plate as in the above step 2) to be ready for the addition of sample; ) Added 100 microliters of sample or standard to each well containing the added diluent, and sealed and incubated the well plate for 2 hours at room temperature; 6) Eluted the well plate as in the above step 2); 7) Added 100 microliters of detector antibody (provided in the kit) to each well, and sealed and incubated the well plate for 2 hours at room temperature. 8) Eluted the well plate as in the above step 2); 9) Added 100 microliters of Streptavidin-HRP working solution (provided in the kit) to each well, and sealed and incubated the well plate in dark for 20 minutes at room temperature. 10) Eluted the well plate as in the above step 2); 11) Added 100 microliters of reaction substrate solution (provided in the kit) to each well, and incubated at room temperature for 20 minutes, protected from light: 12) Added 50 microliters of stop solution (provided in the kit) to each well, and tapped the well plate to ensure that the liquid is evenly mixed; 13) Detected the optical density value of each well at […]. The values could be corrected by deducting the values at 540 nm or 570 nm.
On the technique in general: In an ELISA, binding on a coated surface is turned into a signal by an enzyme label.

For data set [2], the system named is THP-1 cells. Description: THP-1 cell viability assay (MTT). In kind it is cell-based, human. Conditions: groups with or without the compound; FIG. 3. As to the method:
1) Recoveried and expanded THP-1 cells in a T75 culture flask. The growth medium was 10 milliliters of 10% fetal bovine serun/RPMI1640 (already containing 2 mM glutamine)/1% double antibiotics in each flask. […]

Data on one compound can be found in patent US20220079915A1, “IMMUNOSUPPRESSIVE PHARMACEUTICAL COMPOSITION AND APPLICATION THEREOF” (Shanghai Archeus Biotech Co., Ltd., priority 2018, published 2022).

Take `C=C[C@@]1(C)CC(=O)C2(O)[C@@]3(C)C(O)CCC(C)(C)C3[C@H](OC(=O)CCN(C)C)[C@H](OC(C)=O)[C@@]2(C)O1.Cl` (stereo partly drawn) [6-[3-(dimethylamino)propionyl]forskolin hydrochloride]: the results for the “IL-17A level, % of the positive control” value in data set [1] (0.5 μM alone) and in data set [1] (1 μM alone) were 88% and 19%, respectively. Moreover, the “reduction in IL-17A levels” value in data set [1] (0.5 μM used alone) was determined as 12%. Moreover, in data set [1] (1 μM compound alone, FIG. 10), the “IL-17A, % of the basic level” value is on record as 18%. For the same compound, in data set [1] (Mus musculus, CD4+ T, 168 h, 10 μM, 7 days cytokine induction, FIG. 8, read-out: inhibition of the positive control IL-17A level), the inhibition at 10 µM was about 97%. The inhibition at 1 µM in data set [1] (Mus musculus, CD4+ T, 1 μM alone, FIG. 10, read-out: reduction in IL-17A levels (inhibitory effect)) turned out to be 81%. In addition, the “IL-17A treatment value, A” value in data set [1] (Table 7, relative to control, 0.5 μM) was 88%. Also, the “IL17-A treatment value, A” value in data set [1] (Table 8, relative to control, 0.5 μM) is 88%. In addition, the cell viability entry in data set [2] is reported as “no significant difference”.
